Data reported in US20220047566A1, “LONG ACTING IN-SITU FORMING/GELLING COMPOSITIONS” (Humanwell Pharmaceutical US, priority 2020, published 2022).
Structures can show the parent of a compound that is named as a salt.

Tested on: skin incision
Test: Mini-pig skin incision model, Von Frey test
Assay type: in vivo
Settings: subcutaneous into both sides of incision
Method: Mini-pig skin incision model was used to test the anesthetic efficacy of some formulations. Mini pig was used in this model due to the similarities of their skin to humans. Mini pigs (9-12 kg) were randomly assigned for test groups. Under isoflurane anesthesia and sterile surgical conditions, a 6 cm long incision was made through skin in the rear left flank. The test drugs were administered subcutaneously into both sides of incision. The wound was then closed by continuous suture. After surgery the mini pig received antibiotic amoxicillin injection for 3 days as wound care. The efficacy of test drugs was evaluated by Von Frey test. At desired time point, an electrical automatic Von Frey was used to apply force about 0.5 cm to the incision. If operator observed the contraction of skin/muscle, or the applied force was over 100 g, the operator stopped the test and record the read of applied force. The response baseline of all mini pigs was tested and the pain threshold was set to the middle of baseline and 100 g. If the response force was higher than pain threshold value then there was anesthesia efficacy, vice versa.

## CCCCN1CCCC[C@H]1C(=O)Nc1c(C)cccc1C [levobupivacaine HCl]
  duration of anesthesia efficacy: about 4 hours
